Source: patent US7445765B2, “Radiopharmaceutical for diagnostic imaging containing a technetium-99m nitride heterocomplex” (Nihon Medi-Physics Co., Ltd., priority 2000, dated 2008)

Key:
[1] = Biodistribution of the 99mTc(N) heterocomplexes in rats (organ uptake, heart accumulation, heart/lung and heart/liver ratios); assay type: in vivo, female Sprague-Dawley rats
Procedure, shortened: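 Female Sprague-Dawley rats (200–250 g, n=3), ketamine/xylazine anaesthesia, got 300–370 kBq of each purified heterocomplex in pH 7.4 phosphate buffer (10% ethanol) via the jugular vein. They were killed at several post-injection times. Heart blood and washed, weighed organs were gamma-counted, taking whole blood as 6.5% of body weight.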

[2] = Measurement of Log k′ (partition ratio) by HPLC, PNP3 heterocomplexes; assay type: physicochemical; conditions: HPLC C18, methanol/phosphate buffer (0.02M, pH 7.4), 1.0 mL/min; extrapolated to 0% organic solvent
Procedure: For the various ^99mTc(N) heterocomplexes synthesized using PNP3 as a bisphosphinoamine compound in Example 1, Log k′ values were determined at various compositions of a mobile phase for HPLC. As the mobile phase, mixtures of methanol and phosphate buffer (0.02M, pH=7.4) were used at a flow rate of 1.0 mL/min. For each sample, the retention time was measured at a minimum of three different methanol concentrations in the mobile phase. The Log k′ values at 0% organic solvent (Log k′0) were extrapolated from the linear part of the curve Log k′=a+bC, where C is the methanol concentration, and Log k′ is Log (tR-to)/to wherein tR is HPLC retension time (min). The column void time (t0) was regarded as being equal to the elution time of pertechnetic acid.

[3] = Stability: ligand exchange reaction with cysteine or glutathione; assay type: physicochemical; conditions: phosphate buffer pH 7.4, 37° C., up to 2 hours, TLC
Procedure: The stability of the ^99mTc(N) heterocomplexes obtained using PNP3 as a bisphosphinoamine compound in Example 1 was confirmed by ligand exchange reaction with cysteine or glutathione.
250.0 μL of phosphate buffer solution (0.20 M, pH=7.4), 100 μL of water and 100 μL of each of the ^99mTc(N) heterocomplexes purified were mixed with 50 μL of each of cysteine solutions having different concentrations of 10 mM and 1.0 mM, and the resulting mixture was placed in a polypropylene test tube and incubated in a thermostat at 37° C. A blank solution was obtained by mixing an equal volume of water without addition of cysteine. Aliquots of the resulting solutions were withdrawn at 15 min, 30 min, 60 min and 2 hours after the start of the incubation, and analyzed by TLC. The same experiment as above was carried out except for using glutathione in place of cysteine. All the ^99mTc(N) heterocomplex samples were found stable against transchelation by cystein or glutathione.

Biodistribution in rats: Adrenal glands ([1]; 0 min post injection): 1.65 ± 0.22 % ID/g
Biodistribution in rats: Blood ([1]; 0 min post injection): 1.36 ± 0.02 % ID/g
Biodistribution in rats: Brain ([1]; 0 min post injection): 0.20 ± 0.02 % ID/g
Biodistribution in rats: Heart ([1]; 0 min post injection): 3.08 ± 0.31 % ID/g
Biodistribution in rats: Intestine ([1]; 0 min post injection): 3.25 ± 0.60 % ID/g
Biodistribution in rats: Kidneys ([1]; 0 min post injection): 6.36 ± 0.13 % ID/g
Biodistribution in rats: Liver ([1]; 0 min post injection): 3.48 ± 0.24 % ID/g
Biodistribution in rats: Lungs ([1]; 0 min post injection): 1.45 ± 0.04 % ID/g
Biodistribution in rats: Muscle ([1]; 0 min post injection): 0.27 ± 0.02 % ID/g
Biodistribution in rats: Spleen ([1]; 0 min post injection): 1.23 ± 0.01 % ID/g
Biodistribution in rats: Submaxillary glands ([1]; 0 min post injection): 2.27 ± 0.20 % ID/g
Biodistribution in rats: Adrenal glands ([1]; 2 min post injection): 0.98 ± 0.12 % ID/g
Biodistribution in rats: Blood ([1]; 2 min post injection): 0.30 ± 0.09 % ID/g
Biodistribution in rats: Brain ([1]; 2 min post injection): 0.02 ± 0.00 % ID/g
Biodistribution in rats: Heart ([1]; 2 min post injection): 2.06 ± 0.13 % ID/g
Biodistribution in rats: Intestine ([1]; 2 min post injection): 4.30 ± 1.74 % ID/g
Biodistribution in rats: Kidneys ([1]; 2 min post injection): 8.21 ± 0.62 % ID/g
Biodistribution in rats: Liver ([1]; 2 min post injection): 3.71 ± 0.36 % ID/g
Biodistribution in rats: Lungs ([1]; 2 min post injection): 0.65 ± 0.06 % ID/g
Biodistribution in rats: Muscle ([1]; 2 min post injection): 0.25 ± 0.04 % ID/g
Biodistribution in rats: Spleen ([1]; 2 min post injection): 0.51 ± 0.04 % ID/g
Biodistribution in rats: Submaxillary glands ([1]; 2 min post injection): 1.22 ± 0.11 % ID/g
Biodistribution in rats: Adrenal glands ([1]; 10 min post injection): 1.49 ± 0.82 % ID/g
Biodistribution in rats: Blood ([1]; 10 min post injection): 0.21 ± 0.00 % ID/g
Biodistribution in rats: Brain ([1]; 10 min post injection): 0.01 ± 0.00 % ID/g
Biodistribution in rats: Heart ([1]; 10 min post injection): 2.37 ± 0.33 % ID/g
Biodistribution in rats: Intestine ([1]; 10 min post injection): 4.36 ± 2.28 % ID/g
Biodistribution in rats: Kidneys ([1]; 10 min post injection): 6.82 ± 3.62 % ID/g
Biodistribution in rats: Liver ([1]; 10 min post injection): 3.49 ± 0.09 % ID/g
Biodistribution in rats: Lungs ([1]; 10 min post injection): 0.67 ± 0.23 % ID/g
Biodistribution in rats: Muscle ([1]; 10 min post injection): 0.29 ± 0.08 % ID/g
Biodistribution in rats: Spleen ([1]; 10 min post injection): 0.57 ± 0.22 % ID/g
Biodistribution in rats: Submaxillary glands ([1]; 10 min post injection): 1.70 ± 0.60 % ID/g
Biodistribution in rats: Adrenal glands ([1]; 20 min post injection): 1.46 ± 0.15 % ID/g
Biodistribution in rats: Blood ([1]; 20 min post injection): 0.08 ± 0.02 % ID/g
Biodistribution in rats: Brain ([1]; 20 min post injection): 0.01 ± 0.00 % ID/g
Biodistribution in rats: Heart ([1]; 20 min post injection): 2.49 ± 0.31 % ID/g
Biodistribution in rats: Intestine ([1]; 20 min post injection): 14.47 ± 4.75 % ID/g
Biodistribution in rats: Kidneys ([1]; 20 min post injection): 5.63 ± 2.05 % ID/g
Biodistribution in rats: Liver ([1]; 20 min post injection): 1.86 ± 0.47 % ID/g
Biodistribution in rats: Lungs ([1]; 20 min post injection): 0.43 ± 0.05 % ID/g
Biodistribution in rats: Muscle ([1]; 20 min post injection): 0.39 ± 0.12 % ID/g
Biodistribution in rats: Spleen ([1]; 20 min post injection): 0.38 ± 0.04 % ID/g
Biodistribution in rats: Submaxillary glands ([1]; 20 min post injection): 1.38 ± 0.07 % ID/g
Biodistribution in rats: Adrenal glands ([1]; 30 min post injection): 1.31 ± 0.19 % ID/g
Biodistribution in rats: Blood ([1]; 30 min post injection): 0.04 ± 0.00 % ID/g
Biodistribution in rats: Brain ([1]; 30 min post injection): 0.01 ± 0.00 % ID/g
Biodistribution in rats: Heart ([1]; 30 min post injection): 2.57 ± 0.06 % ID/g
Biodistribution in rats: Intestine ([1]; 30 min post injection): 11.78 ± 1.78 % ID/g
Biodistribution in rats: Kidneys ([1]; 30 min post injection): 4.88 ± 0.56 % ID/g
Biodistribution in rats: Liver ([1]; 30 min post injection): 1.30 ± 0.71 % ID/g
Biodistribution in rats: Lungs ([1]; 30 min post injection): 0.41 ± 0.04 % ID/g
Biodistribution in rats: Muscle ([1]; 30 min post injection): 0.32 ± 0.08 % ID/g
Biodistribution in rats: Spleen ([1]; 30 min post injection): 0.37 ± 0.00 % ID/g
Biodistribution in rats: Submaxillary glands ([1]; 30 min post injection): 1.53 ± 0.17 % ID/g
Biodistribution in rats: Adrenal glands ([1]; 60 min post injection): 1.17 ± 0.17 % ID/g
Biodistribution in rats: Blood ([1]; 60 min post injection): 0.02 ± 0.01 % ID/g
Biodistribution in rats: Brain ([1]; 60 min post injection): 0.01 ± 0.00 % ID/g
Biodistribution in rats: Heart ([1]; 60 min post injection): 2.26 ± 0.60 % ID/g
Biodistribution in rats: Intestine ([1]; 60 min post injection): 11.05 ± 5.05 % ID/g
Biodistribution in rats: Kidneys ([1]; 60 min post injection): 3.44 ± 0.76 % ID/g
Biodistribution in rats: Liver ([1]; 60 min post injection): 0.42 ± 0.23 % ID/g
Biodistribution in rats: Lungs ([1]; 60 min post injection): 0.27 ± 0.09 % ID/g
Biodistribution in rats: Muscle ([1]; 60 min post injection): 0.27 ± 0.04 % ID/g
Biodistribution in rats: Spleen ([1]; 60 min post injection): 0.18 ± 0.10 % ID/g
Biodistribution in rats: Submaxillary glands ([1]; 60 min post injection): 1.33 ± 0.46 % ID/g
Biodistribution in rats: Adrenal glands ([1]; 120 min post injection): 1.14 ± 0.15 % ID/g
Biodistribution in rats: Blood ([1]; 120 min post injection): 0.01 ± 0.00 % ID/g
Biodistribution in rats: Brain ([1]; 120 min post injection): 0.01 ± 0.00 % ID/g
Biodistribution in rats: Heart ([1]; 120 min post injection): 2.45 ± 0.41 % ID/g
Biodistribution in rats: Intestine ([1]; 120 min post injection): 16.10 ± 2.10 % ID/g
Biodistribution in rats: Kidneys ([1]; 120 min post injection): 3.43 ± 0.38 % ID/g
Biodistribution in rats: Liver ([1]; 120 min post injection): 0.16 ± 0.04 % ID/g
Biodistribution in rats: Lungs ([1]; 120 min post injection): 0.20 ± 0.04 % ID/g
Biodistribution in rats: Muscle ([1]; 120 min post injection): 0.36 ± 0.12 % ID/g
Biodistribution in rats: Spleen ([1]; 120 min post injection): 0.14 ± 0.03 % ID/g
Biodistribution in rats: Submaxillary glands ([1]; 120 min post injection): 1.36 ± 0.14 % ID/g
Log k′ (partition ratio) [2]: 3.18
Stability [3]: Stable
SMILES: COCCC[P]1(CCCOC)CCN(CCOC)CC[P](CCCOC)(CCCOC)[99Tc+]12(#[N])[S]C(N(CCOC)CCOC)=[S]2 [[^99mTc(N) (PNP3) (DPODC)]^+]
